From US20090143478A1, “Milled Submicron Organic Biocides With Narrow Particle Size Distribution, and Uses Thereof” (PhibroWood, LLC, priority 2004, published 2009)
Read-outs that look alike come from different tables or passages of the source.

Legend:
[1] = type: physicochemical; conditions: 0.4-0.5 mm zirconium silicate
Protocol: (§1) The laboratory-sized vertical mill was provided by C B Mills, model# L-3-J. The mill has a 2 liter capacity and is jacketed for cooling. Unless otherwise specified, ambient water was cycled through the mill cooling jacket during operation. The internal dimensions are 3.9″ diameter by 9.1″ height. The mill uses a standard 3×3″ disk agitator (mild steel) on a stainless steel shaft, and it operates at 2,620 rpm.
(§2) The media used in this Example was 0.4-0.5 mm zirconium silicate beads supplied by C B Mills. All particle size determinations were made with a Sedigraph™ 5100T manufactured by Micromeritics, which uses x-ray detection and bases calculations of size on Stokes' Law.
The total batch weight was about 600 g.

[2] = at 170 C; cited from earlier work
[3] = cited from earlier work
[4] = Wet milling chlorothalonil with 0.5-0.6 mm cerium-doped zirconium oxide beads, particle size by Sedigraph; type: physicochemical
Protocol: as §1, §2
The same mill and conditions were used in this experiment as in experiment 1. However, the grinding media was 0.5-0.6 mm cerium-doped zirconium oxide beads obtained from CB Mills. The density of the cerium doped zirconium oxide is ˜6.0 g/cm^3. […] The total batch weight was about 600 g.

[5] = Milling Time 0 Mins., 0.5-0.6 mm cerium-doped zirconium oxide
[6] = Milling Time 90 Mins., 0.5-0.6 mm cerium-doped zirconium oxide
[7] = Milling Time 240 Mins., 0.5-0.6 mm cerium-doped zirconium oxide
[8] = obtainable in 6 hours, 0.5 mm zirconia milling media
[9] = 0.1 cm zirconia, 10 minutes, US 2004/0063847, 2003/0040569

## N#Cc1c(Cl)c(Cl)c(Cl)c(C#N)c1Cl [chlorothalonil, 2,4,5,6-tetrachloro-1,3-dicyanobenzene]
[1]; Milling Time 0 Mins.
  Volume % With Diameter Greater Than 2 μm: 95 Volume %
  Volume % With Diameter Greater Than 5 μm: 48 Volume %
  Volume % With Diameter Greater Than 10 μm: 10 Volume %
  d50: 4.9 μm
[1]; Milling Time 30 Mins.
  Volume % With Diameter Greater Than 1 μm: 68 Volume %
  Volume % With Diameter Greater Than 2 μm: 21 Volume %
  Volume % With Diameter Greater Than 5 μm: 4 Volume %
  Volume % With Diameter Greater Than 10 μm: 0 Volume %
  d50: 1.3 μm
[1]; Milling Time 60 Mins.
  Volume % With Diameter Greater Than 1 μm: 50 Volume %
  Volume % With Diameter Greater Than 2 μm: 11 Volume %
  Volume % With Diameter Greater Than 5 μm: 2 Volume %
  Volume % With Diameter Greater Than 10 μm: 4 Volume %
  d50: 1.0 μm
[1]; Milling Time 90 Mins.
  Volume % With Diameter Greater Than 1 μm: 94 Volume %
  Volume % With Diameter Greater Than 2 μm: 22 Volume %
  Volume % With Diameter Greater Than 5 μm: 23 Volume %
  Volume % With Diameter Greater Than 10 μm: 18 Volume %
  d50: 1.4 μm
[1]; Milling Time 120 Mins.
  Volume % With Diameter Greater Than 2 μm: 4 Volume %
  Volume % With Diameter Greater Than 5 μm: 0 Volume %
  Volume % With Diameter Greater Than 10 μm: 2 Volume %
  d50: 1.03 μm
[1]; Milling Time 150 Mins.
  Volume % With Diameter Greater Than 1 μm: 58 Volume %
  Volume % With Diameter Greater Than 2 μm: 6 Volume %
  Volume % With Diameter Greater Than 5 μm: 2 Volume %
  Volume % With Diameter Greater Than 10 μm: 0 Volume %
  d50: 1.12 μm
[1]; Milling Time 180 Mins.
  Volume % With Diameter Greater Than 1 μm: 53 Volume %
  Volume % With Diameter Greater Than 2 μm: 7 Volume %
  Volume % With Diameter Greater Than 5 μm: 2 Volume %
  Volume % With Diameter Greater Than 10 μm: 2 Volume %
  d50: 1.07 μm
[1]; Milling Time 270 Mins.
  Volume % With Diameter Greater Than 1 μm: 54 Volume %
  Volume % With Diameter Greater Than 2 μm: 8 Volume %
  Volume % With Diameter Greater Than 5 μm: 0 Volume %
  Volume % With Diameter Greater Than 10 μm: 2 Volume %
  d50: 1.09 μm
[1]; Milling Time 450 Mins.
  Volume % With Diameter Greater Than 1 μm: 56 Volume %
  Volume % With Diameter Greater Than 2 μm: 21 Volume %
  Volume % With Diameter Greater Than 5 μm: 8 Volume %
  Volume % With Diameter Greater Than 10 μm: 12 Volume %
  d50: 1.15 μm
[2]
  volatility: 9.2 mmHg
[3]; 0.1 cm zirconium beads, 3000 rpm, 10 minutes, US 2004/0024099
  size below which 90% of the number of particles lie: below 0.5 microns
[3]; U.S. Pat. No. 5,360,783
  mean / average particle diameter after milling with 2 mm glass beads: 2.3 microns
[3]; U.S. Pat. No. 5,667,795, 40% chlorothalonil, 5.6% zinc oxide, wet mill
  average particle size of the product: 3 microns
[4]; [5]
  Volume % With Diameter Greater Than 1 μm: 92 Volume %
  Volume % With Diameter Greater Than 2 μm: 77 Volume %
  Volume % With Diameter Greater Than 5 μm: 30 Volume %
  Volume % With Diameter Greater Than 10 μm: 8 Volume %
  d50: 3.44 μm
[4]; [6]
  Volume % With Diameter Greater Than 0.4 μm: 22 Volume %
  Volume % With Diameter Greater Than 1 μm: 3 Volume %
  Volume % With Diameter Greater Than 2 μm: 3 Volume %
  Volume % With Diameter Greater Than 5 μm: 3 Volume %
  Volume % With Diameter Greater Than 10 μm: 3 Volume %
[4]; [7]
  Volume % With Diameter Greater Than 0.2 μm: 51 Volume %
  Volume % With Diameter Greater Than 0.4 μm: 3 Volume %
  Volume % With Diameter Greater Than 1 μm: 3 Volume %
  Volume % With Diameter Greater Than 2 μm: 2 Volume %
  Volume % With Diameter Greater Than 5 μm: 1 Volume %
  Volume % With Diameter Greater Than 10 μm: 0 Volume %
  d50: 0.21 μm
[4]; milled chlorothalonil of the example
  d95 within a factor of the d50: ≤ 2
[4]; obtainable in 90 minutes, 0.5 mm zirconia milling media
  d95: less than 1 micron
[4]; [8]
  d50: less than 0.3 microns
  d95: less than 0.4 microns
[4]; product obtained after 90 minutes of milling (first statement)
  increase in number of particles per unit of mass over the standard products, factor: more than 30
[4]; product obtained after 90 minutes of milling (second statement)
  increase in number of particles per unit of mass over the standard products, factor: more than 1000

## CC1OC(C)OC(C)OC(C)O1 (stereo not drawn) [metaldehyde]
[3]; [9]
  diameter below which 90% of the particles lie: less than 2.5 microns
  mean volume diameter: less than 1.5 microns
